Consider twelve compounds from ChEMBL document CHEMBL1201862, “PubChem BioAssay data set” (2004).

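All cell lines were grown in 96-well plates and treated with compound for 48 hours. The concentration for 50% growth inhibition is given as GI50.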 The source made the active and inactive calls. Rule as the data show it: active = GI50 up to about 1.1 µM and inactive = higher.

Among the test systems are HL-60; UACC-62; SF-268; HCT-116; SN12C; RPMI-8226; OVCAR-3; EKVX; SR; 786-0; MOLT-4; M14; HOP-92; SK-MEL-2; SF-539; HCT-15; LOX IMVI; NCI/ADR-RES; PC-3.
Assay in all cases: NCI-60 cell line screen, 48 h

For `O=C1OCCC1(Cc1ccc(Cl)cc1)Cc1ccc(Cl)cc1`, the GI50 in the test with HL-60, in the test on UACC-62, in the test with SF-268, in the test on HCT-116, in the test with SN12C and with RPMI-8226 was > 100 µM (inactive) each time. For the same compound, the GI50 with OVCAR-3 was > 100 µM (inactive); with EKVX, > 100 µM (inactive); in the test on SR it was > 100 µM (inactive); in the test with 786-0, 64.6 µM (inactive); with MOLT-4, > 100 µM (inactive); in the test with M14, > 100 µM (inactive). Besides, the GI50 is 30.3 µM (inactive) in the test with HOP-92 and 71.8 µM (inactive) with SK-MEL-2.

For `CN(C)CCCNC(=O)c1cccc2nc3ccccc3nc12`, the GI50 is 16.3 µM (inactive) with SF-539; 15.2 µM in the test on HCT-15; 24.1 µM (inactive) in the test on UACC-62; 0.32 µM (active) with SF-268; 4.83 µM (inactive) in the test on HCT-116; 23.2 µM (inactive) with SN12C. The GI50 is 20.1 µM (inactive) with RPMI-8226; 19.4 µM (inactive) with OVCAR-3; 6.52 µM (inactive) with LOX IMVI; 27.3 µM (inactive) in the test with EKVX; 4.57 µM (inactive) in the test with SR; 51.1 µM (inactive) with 786-0. For the same compound, the GI50 with MOLT-4 was 9.77 µM (inactive); in the test on M14, 22 µM (inactive); with HOP-92, 50.4 µM (inactive); in the test with SK-MEL-2 it was 14.8 µM (inactive).

As to `COCOCCC#CCO`, the GI50 with SF-539 is > 100 µM (inactive); in the test on HL-60, > 100 µM (inactive); in the test with HCT-15 it was more than 100 µM; in the test on UACC-62, > 100 µM (inactive); in the test with SF-268, > 100 µM (inactive); in the test on HCT-116, 88.9 µM (inactive). The GI50 with SN12C was > 100 µM (inactive); in the test with RPMI-8226, > 100 µM (inactive); in the test with OVCAR-3, > 100 µM (inactive); in the test on LOX IMVI, > 100 µM (inactive); in the test on EKVX it was > 100 µM (inactive); in the test on SR, 83.8 µM (inactive). Also, the GI50 in the test with 786-0, in the test with MOLT-4, in the test with M14, in the test with HOP-92 and in the test with SK-MEL-2 was > 100 µM (inactive) throughout.

With `CCCCCCCCCCCCCCCCOCC(CCl)OP(=O)(O)OP(=O)(O)OCC1OC(n2ccc(N)nc2=O)C(O)C1O` (stereo not drawn), the GI50 in the test with SF-539 was > 100 µM (inactive); in the test with HL-60, > 100 µM (inactive); in the test with HCT-15 it was more than 100 µM; with UACC-62, > 100 µM (inactive); with SF-268 it was > 100 µM (inactive); in the test with HCT-116, > 100 µM (inactive). In addition, the GI50 in the test with SN12C, in the test with RPMI-8226, with OVCAR-3, in the test with LOX IMVI, in the test on NCI/ADR-RES and in the test on EKVX was > 100 µM (inactive) each time. Also, the GI50 with PC-3 was 87.7 µM (inactive); in the test with 786-0, > 100 µM (inactive); in the test on MOLT-4, > 100 µM (inactive); with M14 it was > 100 µM (inactive); in the test on HOP-92, > 100 µM (inactive); in the test with SK-MEL-2, > 100 µM (inactive).

For `Clc1ccc(CCN2CCOCC2)c(Cl)c1`, the GI50 in the test with SF-539 was > 100 µM (inactive); with HL-60 it was > 100 µM (inactive); with HCT-15, more than 100 µM; with UACC-62 it was 92.5 µM (inactive); with SF-268, > 100 µM (inactive); in the test with HCT-116 it was > 100 µM (inactive). In addition, the GI50 in the test with SN12C, in the test with RPMI-8226, with EKVX, in the test with SR, with 786-0 and in the test on MOLT-4 was > 100 µM (inactive) throughout. For the same compound, the GI50 in the test on M14, with HOP-92 and in the test on SK-MEL-2 was > 100 µM (inactive) in each case.

With `CN(C)CC1CC/C(=C\c2ccc(Cl)c(Cl)c2)C1=O` (stereo not drawn), the GI50 is > 40.5 µM (inactive) in the test with SF-539; 0.586 µM (active) in the test with HL-60; 12.7 µM in the test on HCT-15; 17.6 µM (inactive) with UACC-62; 31.6 µM (inactive) with SF-268; 24.3 µM (inactive) in the test with HCT-116. In addition, the GI50 in the test on SN12C is > 38.9 µM (inactive); with RPMI-8226, 1.95 µM (inactive); in the test on OVCAR-3, 28.3 µM (inactive); in the test with LOX IMVI it was 13.5 µM (inactive); with EKVX, 39.3 µM (inactive); in the test with SR, 2.2 µM (inactive). Besides, the GI50 in the test on 786-0 was 11.7 µM (inactive); in the test on MOLT-4 it was 4.76 µM (inactive); in the test on M14, 18.9 µM (inactive); in the test with HOP-92 it was 17.7 µM (inactive); with SK-MEL-2, > 45.1 µM (inactive).

`O=C1C2C3C=CC(C2C(=O)N1CN1CCSCC1)C1C2C(=O)N(CN4CCSCC4)C(=O)C2C31` (stereo not drawn): the GI50 in the test on SF-539 is > 100 µM (inactive); in the test with HL-60, 29.9 µM (inactive); in the test on HCT-15, 34.8 µM; in the test on UACC-62, > 100 µM (inactive); in the test with SF-268, > 50.4 µM (inactive); with HCT-116 it was > 41.2 µM (inactive). Moreover, the GI50 with SN12C is 97.9 µM (inactive); in the test with RPMI-8226 it was 25.5 µM (inactive); with OVCAR-3, > 100 µM (inactive); in the test with LOX IMVI, > 53.5 µM (inactive); in the test with EKVX, > 100 µM (inactive); with SR, 39.7 µM (inactive). The GI50 was > 52.4 µM (inactive) in the test on 786-0; > 78.5 µM (inactive) in the test with MOLT-4; > 100 µM (inactive) in the test on M14; > 75.5 µM (inactive) in the test on HOP-92; > 100 µM (inactive) in the test on SK-MEL-2.

On to `COC(=O)C12C(=O)O[C@H](C)C1(O)C(C)C(=O)N2C` (stereo partly drawn), for which the GI50 in the test on SF-539 was > 100 µM (inactive); with HCT-15, more than 100 µM; in the test with UACC-62, > 100 µM (inactive); in the test with HCT-116 it was > 100 µM (inactive); in the test on RPMI-8226, > 100 µM (inactive); in the test with OVCAR-3, > 100 µM (inactive). Also, the GI50 in the test with EKVX is > 100 µM (inactive); in the test with SR, > 100 µM (inactive); in the test on 786-0, > 100 µM (inactive); with MOLT-4, > 100 µM (inactive); with M14, > 100 µM (inactive); in the test with HOP-92, < 0.01 µM (active). Also, the GI50 with SK-MEL-2 was > 100 µM (inactive).

`CC(=O)OC1C(COC(N)=O)OC(n2c(-c3ccc(C)cc3)cc(-c3ccccc3)c(C#N)c2=O)C(OC(C)=O)C1OC(C)=O` (stereo not drawn): the GI50 with SF-539 is > 100 µM (inactive); in the test with HCT-15, more than 100 µM; with UACC-62, > 100 µM (inactive); with SF-268, > 100 µM (inactive); with HCT-116 it was > 100 µM (inactive); in the test on SN12C, > 100 µM (inactive). Moreover, the GI50 in the test on RPMI-8226, in the test with OVCAR-3, with LOX IMVI, in the test with EKVX, in the test with SR and in the test on 786-0 was > 100 µM (inactive) throughout. Further, the GI50 with MOLT-4 was > 100 µM (inactive); in the test with M14, > 100 µM (inactive); in the test with HOP-92, 9.86 µM (inactive); in the test with SK-MEL-2, > 100 µM (inactive).

Regarding `CCCCCCNC(=O)CCN(C(=O)O)S(=O)(=O)c1ccc(NC(=O)c2ccccc2)cc1`, the GI50 is 17.9 µM (inactive) in the test on SF-539; 35.9 µM (inactive) in the test with HL-60; 22 µM in the test with HCT-15; > 44.6 µM (inactive) with UACC-62; > 78.9 µM (inactive) in the test with SF-268; 39 µM (inactive) with HCT-116. In addition, the GI50 was > 100 µM (inactive) in the test with SN12C; 26.4 µM (inactive) in the test on RPMI-8226; > 100 µM (inactive) in the test with OVCAR-3; 25.1 µM (inactive) in the test with LOX IMVI; > 100 µM (inactive) in the test on EKVX; 19.3 µM (inactive) in the test with SR. In addition, the GI50 was > 96.4 µM (inactive) in the test on 786-0; > 42.9 µM (inactive) with MOLT-4; > 100 µM (inactive) in the test with M14; > 100 µM (inactive) with HOP-92; > 100 µM (inactive) in the test on SK-MEL-2.

`CC1=NN(C(=O)Nc2ccc(Cl)cc2)C(=O)C2CCC(=O)N12` (stereo not drawn): the GI50 was > 100 µM (inactive) in the test on SF-539; 61.7 µM (inactive) in the test with HL-60; 1.76 µM with HCT-15; 2.2 µM (inactive) in the test on UACC-62; 45.3 µM (inactive) in the test with SF-268; > 100 µM (inactive) in the test with HCT-116. In addition, the GI50 in the test with SN12C was > 100 µM (inactive); with RPMI-8226 it was 93.3 µM (inactive); in the test with OVCAR-3, > 100 µM (inactive); in the test with LOX IMVI it was 4.13 µM (inactive); with EKVX, > 100 µM (inactive); in the test on SR it was > 100 µM (inactive). Besides, the GI50 with 786-0 is 88.7 µM (inactive); in the test on MOLT-4, 53 µM (inactive); with M14 it was > 100 µM (inactive); with HOP-92, > 100 µM (inactive); in the test with SK-MEL-2 it was > 100 µM (inactive).

As to `O=C(Cc1ccccc1)N/N=C(/c1nc2ccc([N+](=O)[O-])cc2nc1O)C(O)c1ccco1` (stereo not drawn), the GI50 with SF-539 is > 100 µM (inactive); in the test on HL-60 it was 31.8 µM (inactive); in the test on HCT-15, 67.8 µM; with UACC-62, > 100 µM (inactive); in the test on SF-268, > 100 µM (inactive); with HCT-116 it was > 100 µM (inactive). Moreover, the GI50 in the test on SN12C, in the test with RPMI-8226, with LOX IMVI, in the test on EKVX, with SR and in the test with 786-0 was > 100 µM (inactive) each time. In addition, the GI50 in the test with MOLT-4, in the test with M14, with HOP-92 and with SK-MEL-2 was > 100 µM (inactive) in each case.
